Columns and labels:
HER-2/neu = assay: Western blotting for expression of HER-2/neu (test (b)); format: cell-based, human; settings: positive in 184B5/HER, BT474 and SKBR3 cells; 24 h; Western blot
Excerpt: We turn now to the criterion (b), that is at least 50% decrease in level of or 50% downregulation of expression of Class I family of receptors tyrosine kinase. The Class I family of receptors tyrosine kinase is described in Reese, M. D., et al Stem Cells 15, pages 1-8 (1997), the whole of which in incorporated herein by reference. Members of the family include HER-2/neu, HER-3, HER-4 and epidermal growth factor receptor (EGFR) and are single-chain membrane spanning proteins which have significant homology to one another including about 80% amino acid identity in the tyrosine kinase domain.
HER-2/neu (erbB-2) gene product is a 185-kDA transmembrane receptor tyrosine kinase that is described in some detail in said Reese et al publication and overexpression thereof has been associated with tumor growth in several kinds of cancer.
To evaluate the expression of Class I family of receptors tyrosine kinase (EGFR, HER-2/neu), Western blotting can be performed. Antibodies for EGFR and HER-2/neu can be obtained from Santa Cruz Biotechnology, Inc.
Expression of EGFR (performed in 184B5, 184B5/HER, 1483, LNCaP, HeLa and CaSki cells)and HER-2/neu (performed in 184B5/HER, SKBR3 and BT474 cells) was assessed in cells after treatment with test compound for 24 hours. 5×10^6 cells were used for the treatment. Western blotting technique was used to assess the expression levels in cells treated with the test compound compared to vehicle alone. Western blotting was carried out as follows:
Cell lysates were prepared by treating cells with lysis buffer (150 mM NaCl, 100 mM Tris (pH 8.0), 1% Tween 20, 50 mM diethyldithiocarbamate, 1 mM EDTA, 1 mM phenylmethylsulfonyl fluoride, 10 μg/ml aprotinin, 10 μg/ml trypsin inhibitor and 10 μg/ml leupeptin). Lysates were sonicated for 20 s on ice and centrifuged at 10,000×g for 10 min to sediment the particulate material. The protein concentration of the supernatant was measured by the method of Lowry, O. H., et al., J. Biol. Chem. 193, 265-275 (195 1). SDS/PAGE was performed under reducing conditions on 10% polyacrylamide gels as described by Laemmli, U.K., Nature (Lond.) 227, 680-685 (1970). The resolved proteins were transferred onto nitrocellulose sheets as detailed by Towbin, H. et al., Proc. Natl. Acad. Sci. USA 76, 4350-4354 (1979). The nitrocellulose membrane was then incubated with anti-EGFR antiserum or anti-HER-2/neu antiserum. Secondary antibody to IgG conjugated to horseradish peroxidase was used. The various antisera were purchased from Santa Cruz Biotechnology, Inc., CA. The blots were probed with the Renaissance Western blot detection system according to the manufacturer's instructions (PerkinElmer Life Sciences, Boston, Mass.).

PPRE luciferase = PPRE luciferase activation, transient transfection reporter assay (test (a)); format: cell-based, human; settings: positive in 184B5, 184B5/HER, HCA7, HCT116, SKBR3 and BT474 cells; 24 h treatment
Excerpt: We turn now to criterion (a), that is activation of PPRE luciferase by at least 100%. PPRE-luciferase refers to a DNA construct containing the peroxisome proliferator activated receptor (PPAR) binding element joined to luciferase. Cells are transfected with PPRE-luciferase DNA. Ligands of PPAR induce luciferase activity. The ability of a test compound to stimulate PPRE-luciferase signifies that the test compound activates PPAR-mediated gene transcription. PPRE means peroxisome proliferator response element and the method by which PPRE-luciferase is constructed is described in Schoonjans, K., et al, J. Biol. Chem. 270, No. 33, 19269-19276 (Aug. 18, 1995). Use of PPRE-luciferase in a transient transfection to measure increase in promoter activity is disclosed in Subbaramaiah, K. et al, J. Biol. Chem. 270, No. 15, 12440-12448 (Apr. 13, […]).
For each well, 1.8 μg of PPRE3-tk-luciferase construct plasmid DNA (described in Forman, B. M., et al, Cell 83, 803 (1995)) plus 0.2 μg of pSV-β-galactosidase were introduced into cells using 8 μg of LipofectAMINE as per the manufacturer's instructions (Invitrogen, CA). After 7 h of incubation, the medium was replaced with basal medium. After transfection, cells were treated with test compound for 24 h. Reporter activities which include luciferase and β-galactosidase were measured in cellular extract 24 h later. Six wells were used for each of the conditions. Luciferase activity represents data that have been normalized with β-galactosidase.
The luciferase assay was performed as per the BD Pharmingen assay reagents. The Enhanced Luciferase Assay Kit provides a firefly luciferase substrate formulation (Substrates A and B) and cell lysis buffer intended for use in measuring luciferase expressed by transfected cells. Media from cell culture plates was removed and rinsed twice with phosphate buffered saline. Enough 1X cell lysis buffer was added to cover cells and incubated at room temperature for 15-20 min. Cells were dislodged by scraping and transferred to microcentrifuge tubes. […] 20-100 μl cell extract was placed into an assay cuvette. One automatic injector type luminometer is used for assay. Manually 100 μl of Substrate A was added to the assay cuvette and automatically 100 μl of Substrate B was injected. Measurements were performed using a luminometer, for a measurement time of 10 seconds.
The β-galactosidase assay was performed as follows:
50 μl of cell lysate from above was incubated with 50 μl of o-nitrophenyl-β-D-galactoside (ONPG; 4 mg/mL) in Z buffer, (Na2HPO4.7H2O (0.06M), NaH2PO4.H2O (0.04M), 1M KCl (0.01M), 1M MgSO4 (0.001M), β-mercaptoethanol (BME) (0.05M) pH 7.0). The reaction was stopped after sufficient yellow color has developed. The yellow color developed is measured at A420 […].

[1] = tested on: HPV16 oncoproteins E6 and E7; assay: Western and Northern blotting for HPV16 oncoproteins E6 and E7 (test (d)); format: cell-based, human papillomavirus; settings: positive in CaSki and SiHa cells
Method: We turn now to the criterion (d), that is at least 50% downregulation of expression of HPV16 oncoproteins E6 and E7.
Protein E6 and E7 which are expressed by HPV16 are believed to play a major role in carcinogenesis.
Western blotting and Northern blotting techniques were used to evaluate the expression of HPV E6 and E7 proteins. The cell lines used for the study were CaSKi and SiHa. The cells were treated with the test compound and cell lysate was obtained as described above and subjected to Western blotting analysis. The Western blotting analysis was performed as described above except anti-HPV 16 E7 antibody was used to probe the blot. The antibody was obtained from Santa Cruz Biotechnology, Inc. CA. For Northern blotting, total cellular RNA was isolated from cell monolayers using an RNA isolation kit from QIAGEN Inc. after treatment with the test compound. 10 μg of total cellular RNA per lane were electrophoresed in a formaldehyde-containing 1.2% agarose gel and transferred to nylon-supported membranes. After baking, membranes were prehybridized overnight in a solution containing 50% formamide, 5×sodium chloride-sodium phosphate-EDTA buffer (SSPE), 5×Denhardt's solution, 0.1% SDS and 100 μg/ml single-stranded salmon sperm DNA and then hybridized for 12 h at 42° C. with radiolabeled cDNA probes for human HPV16 E6 or E7 cDNAs and 18S rRNA. E6 and E7 (as described in Woodworth, C. D., Cancer Res. 16, 4397-4402 (2000)) and 18S rRNA probes were labeled with [^32P]-CTP by random priming. After hybridization, membranes were washed twice for 20 min at room temperature in 2×SSPE-0.1% SDS, twice for 20 min in the same solution at 55° C., and twice for 20 min in 0.1×SSPE-0.1% SDS at 55° C. Washed membranes were then subjected to autoradiography.

cyclin D1 = assay: Western blotting for expression of cyclin D1 (test (c)); format: cell-based, human; settings: positive in 184B5, 184B5/HER cells; 24 h; Western blot
Method: Cyclin D1 is a protein that is important in regulating cell proliferation and is described in Ortega, S., et al, Biochimica et Biophysica Acta 1602, 73-87, (2002), the whole of which is incorporated by reference. […] Effects on expression of cyclin D1 was investigated in 184B5, 184B5/HER, HCA7, HCT116, SKBR3 and BT474 cells. The expression was assessed in cells after treatment with test compound or vehicle using 5×10^4 cells for 24 hours. Western blotting technique was used as follows to assess the expression levels of cyclin D1 in cells treated with the test compound and compared to levels in cells treated with vehicle alone. Cell lysates were prepared by treating cells with lysis buffer as described above. […] The resolved proteins were transferred onto nitrocellulose sheets. The nitrocellulose membrane was then incubated with anti-cyclin D1 antiserum. Secondary antibody to IgG conjugated to horseradish peroxidase was used. The various antisera were purchased from Santa Cruz Biotechnology, Inc., CA. The blots were probed with the Renaissance Western blot detection system according to the manufacturer's instructions (PerkinElmer Life Sciences, Boston, Mass.).

[2] = tested on: tcf/lef/β-catenin-mediated promoter activation; assay: TOPflash/FOPflash reporter assay for tcf/lef/β-catenin-mediated promoter activation (test (f)); format: cell-based, human; settings: positive in 184B5, 184B5/HER, HCA7, HCT116, SKBR3 and BT474 cells; 24 h
Excerpt: Tcf/lef/β-catenin is a transcription factor complex that has been implicated in the regulation of genes involved in carcinogenesis. Increased tcf/lef/β-catenin-mediated gene expression has been linked to pathogenesis of colon cancer. Tcf/lef/β-catenin is described in Barker, N., et al, Adv. Cancer Res. 77, 1-24 (2000), the whole of which is incorporated herein by reference.
Cells (cell lines were 184B5, 184B5/HER, HCA7, HCT116, SKBR3 and BT474) were split into 6 well dishes and the next day were transiently transfected using 8 μg of LipofectAMlNE as per the manufacturer's instructions (Invitrogen, CA). 1.8 μg/dish of the wildtype Tcf/Lef reporter plasmid TOP flash or the mutant plasmid FOP flash was transfected into the cells and 0.2 μg of pSV-β-galactosidase. FOPflash differs from TOPflash by the mutation of its Tcf binding sites and serves to differentiate Tef/-catenin-mediated signaling from background (Upstate Biotechnology, Inc.). Cells were incubated overnight and were treated for 24 hours with either vehicle or test compound. Luciferase activity in the extracts was measured as described above and was corrected for background by subtraction of FOP-FLASH values from corresponding TOP-FLASH values.

PTEN = assay: Western and Northern blotting for expression of PTEN (test (e)); format: cell-based, human; settings: positive in 184B5, 184B5/HER, HCA7, HCT116, SKBR3 and BT474 cells
Method: We turn now to criterion (e), i.e., at least 50% increase in expression of PTEN.
PTEN is a tumor suppressor that inhibits cell proliferation and induces programmed cell death. PTEN (also know as MMAC-1 or TEP-1) is described in Yamada, K. M., et al, Journal of Cell Science 114, 2375-2382, the whole of which is incorporated herein by reference.
Western blotting and Northern blotting techniques were used to evaluate the expression of PTEN. The expression of PTEN was evaluated in HCA7, HCT116, SKBR3, 184B5/HER, 184B5 and BT474 cells. 5×10^6cells were used to treat either vehicle alone or the test compound. The Western blotting analysis was performed as described above except anti-PTEN antibody was used to probe the blot. The antibody was obtained from Santa Cruz Biotechnology, Inc. CA. Northern blotting for PTEN was performed as described above and cDNA for PTEN as described in Tamura, M., et al, Science 5; 280 (5369):1614-1617 (1998), was used as a probe.

Compound | Test (b) HER-2/neu: at least 50% decrease in level of or 50% downregulation of expression (HER-2/neu) | Test (a) activation of PPRE luciferase by at least 100% (PPRE luciferase) | Test (d) at least 50% downregulation of expression of HPV16 oncoproteins E6 and E7 [1] | Test (c) at least 50% downregulation of expression of cyclin D1 (cyclin D1) | Test (f) at least 50% inhibition of tcf/lef/β-catenin-mediated promoter activation [2] | Test (e) at least 50% increase in expression of PTEN (PTEN)
COc1ccc2c(c1)c(CC(=O)NCCc1ccccc1)c(C)n2C(=O)c1ccc(Cl)cc1 [Indomethacin Analog 2, N-(2-phenylethyl)-indomethacin amide] | + (A plus sign in the table indicates a positive result, that is meeting the test for each cell line as indicated above as providing a positive result) | + (A plus sign in the table indicates a positive result, that is meeting the test for each cell line as indicated above as providing a positive result) | + (A plus sign in the table indicates a positive result, that is meeting the test for each cell line as indicated above as providing a positive result) | + (A plus sign in the table indicates a positive result, that is meeting the test for each cell line as indicated above as providing a positive result) | – | –
1-(p-chlorobenzoyl)-5-methoxy-2-methyl-1H-indole-3-octylacetamide [Indomethacin Analog 6] | – | + (A plus sign in the table indicates a positive result, that is meeting the test for each cell line as indicated above as providing a positive result) | + (A plus sign in the table indicates a positive result, that is meeting the test for each cell line as indicated above as providing a positive result) | – | – | –
COc1ccc2c(c1)c(CC(=O)Nc1cccnc1)c(C)n2C(=O)c1ccc(Cl)cc1 [Indomethacin Analog 4, N-(3-pyridyl)-indomethacin amide] | – | + (A plus sign in the table indicates a positive result, that is meeting the test for each cell line as indicated above as providing a positive result) | + (A plus sign in the table indicates a positive result, that is meeting the test for each cell line as indicated above as providing a positive result) | – | + (A plus sign in the table indicates a positive result, that is meeting the test for each cell line as indicated above as providing a positive result) | + (A plus sign in the table indicates a positive result, that is meeting the test for each cell line as indicated above as providing a positive result)
